According to US8877264B2, “Composition of skin external application containing ginseng berry extracts” (Amorepacific Corporation, priority 2007, dated 2014):

Tests used:
[1] = system: ceramide; assay: epidermal lipid (total ceramide) in human skin (TLC); type: in vivo; conditions: 5 wt % test material, twice every day, non-treated group = 100%
Method: In order to evaluate the effect of the ginseng berry extract of Example 1 on an increase in lipid synthesis in human skin, 0.5 wt % of Carbopol ETD 2020, 0.45% of TEA, 5 wt % of the test material and the balance of deionized water were used. On 12 adult men and women, a region corresponding to the diameter of a polypropylene conical tube was marked on the arm, and then was applied with 20 μl of each of control groups and the ginseng berry extract of Example 1 twice every day. The subjects were divided into two groups, and the production of lipid in the applied region was analyzed in the following manner by extracting lipid at day 3 and day 11. Specifically, the arm was washed with service water, and then subjected to tape stripping once with Scotch 810 Magic tape. Then, 1 ml of a mixture of cyclohexane/ethanol (4:1) was added to the tape using a cut 50-ml polypropylene conical tube as a reservoir and stirred for about 1 minute, and then the solution was transferred into a fresh tube. Then, the tape was treated with 1 ml of a mixture of cyclohexane/ethanol (1:1) in the same manner as described above, and the solution was collected in the tube. […]
After the TLC plate was developed, the size of each band was measured at a wavelength of 570 nm using TLC scanner-II (CAMAG; densitometer).

[2] = system: C57BL/6 mouse melanocytes (Mel-Ab cells); assay: melanin production inhibition in mouse melanocytes; type: cell-based; conditions: positive control, concentration not given
[3] = system: human skin; assay: whitening effect on UVB-darkened human skin (colorimeter); type: in vivo; conditions: UVB-darkened upper arm, 10 weeks of application
[4] = system: 5-alpha-reductase; assay: 5-alpha-reductase activity, testosterone to dihydrotestosterone; type: biochemical, rat; conditions: 100 μg extract per reaction
Method: Adult SD (Spraque-Dawley) male rats (7-8-week old) were sacrificed with diethyl ether, the abdominal prostate was extracted, and the connective tissue was removed. The prostate tissue was finely cut in buffer (0.32 M sucrose, 0.1 mM dithiothreitol and 20 mM sodium acetate), and was then suspended with a stirrer. The suspension was centrifuged, and the supernatant was collected. 5-alpha-reductase was partially purified from the supernatant in order to the activity thereof.
A portion of the above-collected supernatant was taken and placed in buffer containing 0.2 M monobasic acid and 0.2 M dibasic acid. Then, the solution was allowed to react with a ^3H-bound substrate (testosterone), and the production of the product dihydrotestosterone was measured.
The reaction solution contained 1 mM dithiothreitol, 40 mM sodium phosphate (pH 6.5), 50 μM NADPH, [1,2,6,7-^3H] testosterone/testosterone ([…]), 0.8 mg enzyme suspension and 565 μl protein.
The ginseng berry extract of Example 1 was dissolved in 10% ethanol and added in an amount of 100 μg extract/10 μl 10% ethanol per reaction. […]
The plastic sheet was dried in air, and then a VAS system was used to measure of isotopes. Specifically, the dried plastic sheet together with an X-ray film was placed in a VAS cassette, and after 1 week, the amounts of the testosterone and dihydrotestosterone isotopes remaining on the film were measured.

[5] = system: lipogenesis in sebaceous glands; assay: lipogenesis inhibition in hamster ear tissue (C14 uptake); type: cell-based; conditions: 0.01% test material solution, 6 hours, average of 4 hamsters
Method: The degree of lipogenesis in sebaceous glands was evaluated by evaluating the inhibition of lipogenesis through the quantification of carbon uptake required for lipogenesis.
Specifically, the ear tissue of hamsters, having abundant sebaceous glands, was biopsied, and the degree of lipogenesis was evaluated by comparatively quantifying the control group and the test materials using a radioactivity meter in C14-labeled media for 6 hours. In the test material groups, the right ear tissue of hamsters was used and 0.01% test material solutions were added to the media, and in the control group, the left ear tissue of hamsters was used and 0.01% saline was added to the media.
Meanwhile, the inhibition (%) in Table 17 was calculated according to the following equation 4 and was expressed as the average of 4 hamsters. […] [Equation 4]

[6] = system: Human normal fibroblasts; assay: inhibition of oxidative DNA damage, single cell gel electrophoresis (comet assay); type: cell-based; conditions: H2O2 10^-3 M; test material 10 ppm
Method: Human normal fibroblasts were cultured for 24 hr and treated with varying concentrations of each of the ginseng berry extract of Example 1 and vitamin E. After 12 hr, the cells were treated with the positive control H2O2 (final concentration: 10^−3M), and then stained by electrophoresis. […] Herein, the image analyzer KOMET 3.1 (Kinetic Imaging, England) was used to analyze the tail length (μm) resulting from the digestion of DNA in each of 25 cells, and the analysis results are shown in Table 3 below.

Molecule: OCC(O)CO [Glycerin, glycerin]
- production of ceramide, After 3 days of treatment [1]: 102%
- production of ceramide, After 11 days of treatment [1]: 94%

Molecule: Oc1ccc(O)cc1 [Hydroquinone, hydroquinone]
- Melanin production inhibition [2]: 41.1%
- Skin-color brightness (ΔL*) [3]: 1.90 ± 0.13

Molecule: Cc1cc2nc3c(=O)[nH]c(=O)nc-3n(C[C@H](O)[C@H](O)[C@H](O)CO)c2cc1C [Positive control group, riboflavin]
- Conversion: radioactivity in the DHT region/total radioactivity ([4]; 37° C., 30 minutes): 28.7%
- Inhibition of 5-alpha-reductase ([4]; vs conversion of control group): 32.4%

Molecule: CC1=C(/C=C/C(C)=C/C=C/C(C)=C/C(=O)O)C(C)(C)CCC1 [retinoic acid]
- Inhibition of lipogenesis [5]: 52%

Molecule: vitamin E
- Inhibition of oxidative damage to DNA [6]: 38.9%
- Tail length [6]: 70.6 μm
